Experiments:
Settings in all cases: Compound concentration 1000.0 nM
[1] = molecular target: T1, Dual specificity protein kinase TTK (Homo sapiens) (UniProt P33981)
T1 sequence (whole entry): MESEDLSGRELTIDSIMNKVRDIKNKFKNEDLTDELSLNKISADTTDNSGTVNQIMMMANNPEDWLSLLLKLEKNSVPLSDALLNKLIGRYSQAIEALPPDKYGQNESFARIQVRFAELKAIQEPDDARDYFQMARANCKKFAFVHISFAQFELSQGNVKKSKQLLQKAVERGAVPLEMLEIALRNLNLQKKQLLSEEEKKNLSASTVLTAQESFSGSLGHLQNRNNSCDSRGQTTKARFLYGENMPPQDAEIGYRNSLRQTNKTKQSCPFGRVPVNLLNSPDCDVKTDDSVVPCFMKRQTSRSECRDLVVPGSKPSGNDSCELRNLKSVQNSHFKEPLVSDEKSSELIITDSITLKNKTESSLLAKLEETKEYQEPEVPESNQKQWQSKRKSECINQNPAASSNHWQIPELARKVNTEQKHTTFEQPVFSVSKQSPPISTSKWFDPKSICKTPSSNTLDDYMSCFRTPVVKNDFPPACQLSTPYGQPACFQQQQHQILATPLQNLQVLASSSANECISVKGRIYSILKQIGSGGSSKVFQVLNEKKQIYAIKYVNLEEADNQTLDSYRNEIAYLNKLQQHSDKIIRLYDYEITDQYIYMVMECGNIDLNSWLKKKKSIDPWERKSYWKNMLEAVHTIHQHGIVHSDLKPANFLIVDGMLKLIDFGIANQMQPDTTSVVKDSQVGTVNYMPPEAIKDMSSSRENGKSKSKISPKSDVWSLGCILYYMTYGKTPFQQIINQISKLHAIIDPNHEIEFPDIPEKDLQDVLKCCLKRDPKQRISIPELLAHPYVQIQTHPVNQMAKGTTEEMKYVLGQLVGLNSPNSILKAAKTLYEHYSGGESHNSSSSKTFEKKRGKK

[2] = molecular target: T2, Serine/threonine-protein kinase Nek1 (Homo sapiens) (UniProt Q96PY6)
T2 sequence (whole entry): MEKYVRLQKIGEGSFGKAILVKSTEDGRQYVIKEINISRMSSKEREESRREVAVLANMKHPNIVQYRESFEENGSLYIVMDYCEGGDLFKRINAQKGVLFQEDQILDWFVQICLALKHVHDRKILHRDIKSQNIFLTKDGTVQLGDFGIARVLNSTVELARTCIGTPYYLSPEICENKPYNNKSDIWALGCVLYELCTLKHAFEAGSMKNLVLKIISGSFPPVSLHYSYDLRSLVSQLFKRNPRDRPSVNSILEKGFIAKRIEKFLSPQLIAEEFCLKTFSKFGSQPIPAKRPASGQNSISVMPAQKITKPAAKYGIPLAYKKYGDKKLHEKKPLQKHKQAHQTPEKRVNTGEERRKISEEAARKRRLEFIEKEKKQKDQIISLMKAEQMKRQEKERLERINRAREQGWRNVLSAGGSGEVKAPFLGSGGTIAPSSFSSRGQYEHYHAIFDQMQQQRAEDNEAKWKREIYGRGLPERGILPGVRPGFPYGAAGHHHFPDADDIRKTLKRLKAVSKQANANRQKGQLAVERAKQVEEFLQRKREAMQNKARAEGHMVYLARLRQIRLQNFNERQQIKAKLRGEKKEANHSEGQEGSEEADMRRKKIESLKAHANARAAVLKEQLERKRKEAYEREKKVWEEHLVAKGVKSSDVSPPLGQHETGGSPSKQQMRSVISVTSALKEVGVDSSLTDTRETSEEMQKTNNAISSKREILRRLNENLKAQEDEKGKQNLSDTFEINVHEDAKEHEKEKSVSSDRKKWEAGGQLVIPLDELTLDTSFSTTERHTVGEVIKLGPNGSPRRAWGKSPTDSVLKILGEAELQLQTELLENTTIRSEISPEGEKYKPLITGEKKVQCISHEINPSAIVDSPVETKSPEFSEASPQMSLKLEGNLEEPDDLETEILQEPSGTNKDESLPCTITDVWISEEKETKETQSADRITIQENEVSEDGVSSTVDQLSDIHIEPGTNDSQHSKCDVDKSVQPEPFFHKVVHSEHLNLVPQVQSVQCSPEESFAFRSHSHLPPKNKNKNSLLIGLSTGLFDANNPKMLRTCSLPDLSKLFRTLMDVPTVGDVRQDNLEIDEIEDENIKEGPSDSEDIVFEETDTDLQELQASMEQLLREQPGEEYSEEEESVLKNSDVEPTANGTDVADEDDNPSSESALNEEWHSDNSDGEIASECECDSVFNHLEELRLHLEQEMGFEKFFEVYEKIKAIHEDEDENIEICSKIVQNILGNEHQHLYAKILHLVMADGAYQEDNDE

[3] = molecular target: T3, Myosin light chain kinase (Homo sapiens) (UniProt Q32MK0)
T3 sequence (whole entry): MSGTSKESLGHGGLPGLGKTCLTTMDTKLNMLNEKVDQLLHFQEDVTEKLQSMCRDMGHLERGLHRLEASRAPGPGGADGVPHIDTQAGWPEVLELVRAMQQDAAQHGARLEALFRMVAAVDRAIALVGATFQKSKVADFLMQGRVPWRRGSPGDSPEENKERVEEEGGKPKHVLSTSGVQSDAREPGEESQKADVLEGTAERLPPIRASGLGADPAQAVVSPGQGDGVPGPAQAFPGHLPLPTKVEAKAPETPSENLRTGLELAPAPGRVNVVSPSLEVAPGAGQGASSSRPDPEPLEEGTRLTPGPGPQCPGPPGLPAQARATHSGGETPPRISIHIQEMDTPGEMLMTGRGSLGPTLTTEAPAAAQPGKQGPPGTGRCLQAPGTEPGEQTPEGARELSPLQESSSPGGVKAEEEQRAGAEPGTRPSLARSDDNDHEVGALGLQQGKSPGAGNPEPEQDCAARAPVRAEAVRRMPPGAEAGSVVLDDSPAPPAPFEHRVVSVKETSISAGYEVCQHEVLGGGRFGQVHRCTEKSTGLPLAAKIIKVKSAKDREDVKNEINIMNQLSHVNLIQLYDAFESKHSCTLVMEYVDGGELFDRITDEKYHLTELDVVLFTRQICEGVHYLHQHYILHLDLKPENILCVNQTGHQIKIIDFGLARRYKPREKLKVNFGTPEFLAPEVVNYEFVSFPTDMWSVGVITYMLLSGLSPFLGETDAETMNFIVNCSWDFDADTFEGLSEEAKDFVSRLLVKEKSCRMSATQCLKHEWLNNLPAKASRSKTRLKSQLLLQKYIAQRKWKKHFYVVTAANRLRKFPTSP

Measured: residual activity

Cc1nc(C2CCN(C(=O)c3ccc(OC(F)(F)F)cc3N)CC2)c2ncc(N3CCN(C)CC3)cc2n1 [BAY-693]
inactive: [1] 100% | [2] 97% | [3] 100%

CN1CCN(c2cnc3c(C4CCN(C(=O)c5ccc(OC(F)(F)F)cc5N)CC4)ncnc3c2)CC1 [BAY-885]
inactive: [1] 100% | [2] 85% | [3] 82%

Reference: ChEMBL document CHEMBL4507268 (2021)
